Laboratory results from patent publication US5175158A, “Condensed diazepinones, processes for preparing them and pharmaceutical compositions containing these compounds” (Dr. Karl Thomae, GmbH, priority 1987, dated 1992).

Legend:
vagal bradycardia (M2) = assay: M1/M2 selectivity in the rat: reduction of vagal bradycardia (M2); format: in vivo, rat (male THOM); conditions: iv, 5 minutes before vagus stimulation, 50% reduction of vagal bradycardia (M2), read-out: log ED50, Heart (converted)
Experimental: (§1) The dosage of the substances which reduced either the vagal bradycardia (M2) or the rise in blood pressure (M1) by 50% was determined graphically. For the results see Table II.

secretion of saliva = assay: Salivation-inhibiting effect in the rat (pilocarpine); format: in vivo, rat (male THOM); conditions: iv; urethane-anaesthetised rat; i.v.; 2 mg/kg pilocarpine s.c.; 50% reduction of saliva volume; read-out: log ED50, Salivation (converted)
Experimental: The secretion of saliva was initiated by subcutaneous administration of 2 mg/kg of pilocarpine. The saliva was absorbed with blotting paper and the surface area covered was measured every 5 minutes by planimetry. The dosage of the substance which reduced the volume of saliva by 50% was determined graphically. For the results see Table II.

[1] = tested on: acetylcholine activity on bronchi; assay: Inhibition of acetylcholine activity on the bronchi in the guinea pig; format: in vivo; conditions: Cavia porcellus, iv, 5 min; anaesthetised guinea pig; 5 minutes after test substance; 10 microgram/kg acetylcholine i.v. and i.a.; expiration resistance (Konzett-Rossler); read-out: log ED50, Bronchi (converted)
Experimental: (§2) 5 minutes after the administration of the test substance, 10 microgram/kg of acetylcholine were simultaneously injected intravenously and intra-arterially into anaesthetised guinea pigs. The heart rate was recorded directly by extracorporeal derivation of the ECG, the expiration resistance according to Konzett-Rossler and contraction of the exposed bladder. In order to determine the inhibition of the acetylcholine activity on the organs under investigation, dosage/activity curves were recorded and from them -log ED50 values were determined. […] The following compounds for example were investigated as described above: […]

[2] = tested on: acetylcholine activity on heart rate; assay: Inhibition of acetylcholine activity on heart rate in the guinea pig; format: in vivo; conditions: Cavia porcellus, iv, 5 min; anaesthetised guinea pig; 5 minutes after test substance; 10 microgram/kg acetylcholine i.v. and i.a.; heart rate by ECG; read-out: log ED50, Heart (converted)
Experimental: as §2

[3] = target: muscarinic receptors (cerebral cortex); assay: Receptor binding test in vitro, cerebral cortex (3H-N-methylscopolamine displacement); set-up: species or system rat (male Sprague-Dawley); conditions: 0.3 nanomolar 3H-NMS, 30° C., 45 minutes, pH 7.4
Experimental: (§3) The organs were donated by male Sprague-Dawley rats weighing 180-220 g. After the heart and submandibular gland and cerebral cortex had been removed, all other steps were carried out in ice cold Hepes HCl buffer (pH 7.4; 100 millimolar NaCl, 10 millimolar MgCl2). The whole heart was cut up with scissors. All the organs were then homogenised in a Potter apparatus.
(§4) For the binding test the homogenised organs were diluted as follows:
(§5) The homogenised organs were incubated at a certain concentration of the radioaligned and at a series of concentrations of the non-radioactive test substances in an Eppendorf centrifuge tube at 30° C. Incubation lasted 45 minutes. The radioligand used was 0.3 nanomolar ^3 H-N-methylscopolamine (^3 H-NMS). Incubation was ended by the addition of ice cold buffer followed by vacuum filtration. The filters were rinsed with cold buffer and their radioactivity was determined. It represents the sum of specific and non-specific binding of ^3 H-NMS. The proportion of non-specific binding was defined as the radioactivity which was bound in the presence of 1 micromolar quinuclidinylbenzylate. Each measurement was taken four times. The IC50 values of the non-labelled test substances were determined graphically. They represent that concentration of test substance at which the specific binding of ^3 H-NMS to the muscarinic receptors in the various organs was inhibited by 50%. […] PG,17

[4] = tested on: acetylcholine activity on bladder; assay: Inhibition of acetylcholine activity on the bladder in the guinea pig; format: in vivo; conditions: Cavia porcellus, iv, 5 min; anaesthetised guinea pig; 5 minutes after test substance; 10 microgram/kg acetylcholine i.v. and i.a.; contraction of exposed bladder; read-out: log ED50, Bladder (converted)
Experimental: as §2

[5] = target: T1, muscarinic receptors (heart) (Rattus norvegicus, UniProt P10980); assay: Receptor binding test in vitro, heart (3H-N-methylscopolamine displacement); set-up: species or system rat (male Sprague-Dawley); conditions: whole heart; 0.3 nanomolar 3H-NMS; 30° C.; 45 minutes; pH 7.4
T1 construct: The whole heart was cut up with scissors; All the organs were then homogenised in a Potter apparatus; from tissue; host or cells: rat whole heart homogenate
T1 sequence (P10980 1-466): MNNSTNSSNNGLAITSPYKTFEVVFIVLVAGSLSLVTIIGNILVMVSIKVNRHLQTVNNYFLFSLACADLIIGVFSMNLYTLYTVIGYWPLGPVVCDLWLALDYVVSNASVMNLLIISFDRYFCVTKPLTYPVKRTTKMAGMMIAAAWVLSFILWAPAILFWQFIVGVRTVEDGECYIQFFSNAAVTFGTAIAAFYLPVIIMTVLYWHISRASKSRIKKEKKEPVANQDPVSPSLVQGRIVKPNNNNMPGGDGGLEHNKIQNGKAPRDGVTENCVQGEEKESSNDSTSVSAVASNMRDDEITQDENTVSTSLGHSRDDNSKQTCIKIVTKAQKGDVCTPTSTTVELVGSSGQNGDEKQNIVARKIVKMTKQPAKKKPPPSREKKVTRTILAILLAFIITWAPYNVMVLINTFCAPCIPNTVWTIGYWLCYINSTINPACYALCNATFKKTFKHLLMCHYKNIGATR
Experimental: as §3, §4, §5

[6] = tested on: rise in blood pressure (M1); assay: M1/M2 selectivity in the rat: reduction of rise in blood pressure caused by McN-A-343 (M1); format: in vivo, rat (male THOM); conditions: iv, 5 minutes before 0.3 mg/kg McN-A-343 i.v., 50% reduction of rise in blood pressure (M1), read-out: log ED50, Blood pressure (converted)
Experimental: as §1

[7] = target: T2, muscarinic receptors (submandibular gland) (Rattus norvegicus, UniProt P08483); assay: Receptor binding test in vitro, submandibular gland (3H-N-methylscopolamine displacement); set-up: species or system rat (male Sprague-Dawley); conditions: 0.3 nanomolar 3H-NMS, 30° C., 45 minutes, pH 7.4
T2 construct: All the organs were then homogenised in a Potter apparatus; from tissue; host or cells: rat submandibular gland homogenate
Experimental: as §3, §4, §5

T2 sequence (P08483 whole entry): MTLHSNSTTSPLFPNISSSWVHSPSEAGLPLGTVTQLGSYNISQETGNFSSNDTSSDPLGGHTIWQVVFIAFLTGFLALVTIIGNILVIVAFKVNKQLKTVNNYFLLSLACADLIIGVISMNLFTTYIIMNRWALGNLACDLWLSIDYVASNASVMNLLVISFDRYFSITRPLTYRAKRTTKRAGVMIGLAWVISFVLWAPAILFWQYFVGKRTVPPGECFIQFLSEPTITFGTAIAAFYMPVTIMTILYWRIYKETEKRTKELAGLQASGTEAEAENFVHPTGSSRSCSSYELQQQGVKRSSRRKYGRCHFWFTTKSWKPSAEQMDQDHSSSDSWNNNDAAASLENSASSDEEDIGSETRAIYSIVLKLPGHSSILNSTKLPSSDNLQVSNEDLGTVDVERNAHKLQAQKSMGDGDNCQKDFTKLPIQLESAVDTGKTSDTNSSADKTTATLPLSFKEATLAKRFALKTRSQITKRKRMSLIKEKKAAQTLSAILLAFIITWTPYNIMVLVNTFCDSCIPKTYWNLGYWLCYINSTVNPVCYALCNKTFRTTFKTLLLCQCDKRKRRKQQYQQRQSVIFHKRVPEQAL

Row | IC50 [3] [nM] | IC50 [5] [nM] | IC50 [7] [nM] | SMILES | ED50 (vagal bradycardia (M2)) [µmol/kg] | ED50 (secretion of saliva) [µmol/kg] | ED50 [1] [µmol/kg] | ED50 [2] [µmol/kg] | ED50 [4] [µmol/kg] | ED50 [6] [µmol/kg]
1 | 60 | 5 | 200 | Cc1scc2c1N(C(=O)CN1CCC(CCCN3CCCCC3)CC1)c1ccccc1NC2=O [A] | 0.0724 | 6.31 | 0.282 | 0.123 | 2.75 | 1.51
2 | 200 | 20 | 550 | O=C1Nc2cccnc2N(C(=O)CN2CCC(CCCN3CCCCC3)CC2)c2ccccc21 [B] |  |  | 0.468 | 0.123 | 1.82 | 
3 | 50 | 9 | 200 | O=C1Nc2cccnc2N(C(=O)CN2CCC(CCCCN3CCCCC3)CC2)c2ccccc21 [C] | 0.115 | > 31.6 | 0.661 | 0.0871 | 2.63 | 3.8
4 | 500 | 50 | 1500 | CN1CCC(CCCC2CCN(CC(=O)N3c4ccccc4C(=O)Nc4cccnc43)CC2)CC1 [D] |  |  | 0.851 | 0.355 | > 10 | 
5 |  |  |  | CN1CCN(CC(=O)N2c3ccccc3C(=O)Nc3cccnc32)CC1 [F] |  |  | 0.269 | 1.41 | 4.37 | 
6 |  |  |  | CN1[C@@H]2CC[C@H]1CC(OC(=O)C(CO)c1ccccc1)C2 (stereo partly drawn) [G] | 0.0115 |  |  | 0.02 | 0.0933 | 0.0457
7 |  |  |  | CCN(CC)CC1CCCCN1CC(=O)N1c2ccccc2C(=O)Nc2cccnc21 (stereo not drawn) [Substance E, 11-[[2-[(diethylamino)methyl]-1-piperidinyl]acetyl]-5,11-dihydro-6H-pyrido [2,3-b][1,4]benzodiazepin-6-one, reference compound] | 0.38 | 10 | 2.63 | 1.45 | 18.6 | 
